Data: ChEMBL document CHEMBL1125981, “Enantioselective total synthesis and pharmacologic profile of 12-deoxy-12(S)-methyl leukotriene B4” (Bioorg Med Chem Lett, 1991)

Key:
Homo sapiens = species: Homo sapiens; assay: Compound was tested for its ability to inhibit human neutrophil degranulation induced by LTB4; assay type: functional
[1] = molecular target: Leukotriene B4 receptor 1 (Homo sapiens, UniProt Q15722); assay: Compound was tested for its antagonist activity in a LTB4 human neutrophil receptor binding assay using the natural ligand itself
Chain of Leukotriene B4 receptor 1 (Q15722 whole entry): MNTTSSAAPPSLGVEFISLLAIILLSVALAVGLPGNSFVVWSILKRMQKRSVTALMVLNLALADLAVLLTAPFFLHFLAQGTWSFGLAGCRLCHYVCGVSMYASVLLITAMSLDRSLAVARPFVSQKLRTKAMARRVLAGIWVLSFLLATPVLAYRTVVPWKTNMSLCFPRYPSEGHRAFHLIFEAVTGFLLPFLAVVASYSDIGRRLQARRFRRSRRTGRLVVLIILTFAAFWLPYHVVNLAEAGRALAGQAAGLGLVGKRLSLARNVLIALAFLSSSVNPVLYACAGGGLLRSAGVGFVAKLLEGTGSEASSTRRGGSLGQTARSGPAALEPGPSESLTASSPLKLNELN

IC50 (Homo sapiens): 3.4 µM | IC50 [1]: 3.8 µM
Compound: CCCCC/C=C\C[C@@H](C)/C=C/C=C/C=C/[C@@H](O)CCCC(=O)O
